Assay results from PubChem BioAssay (NCI).
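All cell lines were grown in 96-well plates and treated with compound for 48 hours. The concentration for full growth arrest is given as TGI.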

How the values were obtained:
Assay in all cases: growth of human tumour cells (NCI), 48 h
SF-268 CNS = tested on: SF-268 CNS
PC-3 prostate = tested on: PC-3 prostate
CCRF-CEM leukemia = tested on: CCRF-CEM leukemia
HL-60(TB) leukemia = tested on: HL-60(TB) leukemia
DLD-1 colon = tested on: DLD-1 colon
MCF7 breast = tested on: MCF7 breast
M19-MEL melanoma = tested on: M19-MEL melanoma
LOX IMVI melanoma = tested on: LOX IMVI melanoma
LXFL 529 NSCLC = tested on: LXFL 529 NSCLC
SF-539 CNS = tested on: SF-539 CNS
IGROV1 ovarian = tested on: IGROV1 ovarian
UACC-257 melanoma = tested on: UACC-257 melanoma
A549 NSCLC = tested on: A549 NSCLC
U251 CNS = tested on: U251 CNS
OVCAR-4 ovarian = tested on: OVCAR-4 ovarian
RXF 393 renal = tested on: RXF 393 renal
SN12C renal = tested on: SN12C renal
OVCAR-3 ovarian = tested on: OVCAR-3 ovarian
NCI-H23 lung = tested on: NCI-H23 lung
KM12 colon = tested on: KM12 colon
MDA-N = tested on: MDA-N
MOLT-4 leukemia = tested on: MOLT-4 leukemia
HCT-15 colon = tested on: HCT-15 colon
HCC-2998 colon = tested on: HCC-2998 colon
EKVX NSCLC = tested on: EKVX NSCLC
CAKI-1 renal = tested on: CAKI-1 renal
SNB-75 CNS = tested on: SNB-75 CNS
SF-295 CNS = tested on: SF-295 CNS
ACHN renal = tested on: ACHN renal
BT-549 breast = tested on: BT-549 breast
K-562 leukemia = tested on: K-562 leukemia
SK-OV-3 ovarian = tested on: SK-OV-3 ovarian
MDA-MB-435 = tested on: MDA-MB-435
A498 renal = tested on: A498 renal
OVCAR-5 ovarian = tested on: OVCAR-5 ovarian
M14 melanoma = tested on: M14 melanoma
SW-620 colon = tested on: SW-620 colon
COLO 205 colon = tested on: COLO 205 colon
RPMI-8226 leukemia = tested on: RPMI-8226 leukemia
MDA-MB-231 breast = tested on: MDA-MB-231 breast
SR leukemia = tested on: SR leukemia
HT29 colon = tested on: HT29 colon
HOP-92 NSCLC = tested on: HOP-92 NSCLC
SK-MEL-28 melanoma = tested on: SK-MEL-28 melanoma
HCT-116 colon = tested on: HCT-116 colon
786-0 renal = tested on: 786-0 renal
DMS 273 small cell lung = tested on: DMS 273 small cell lung
DMS 114 small cell lung = tested on: DMS 114 small cell lung
OVCAR-8 ovarian = tested on: OVCAR-8 ovarian
TK-10 renal = tested on: TK-10 renal
HS 578T breast = tested on: HS 578T breast
KM20L2 colon = tested on: KM20L2 colon
HOP-18 NSCLC = tested on: HOP-18 NSCLC
NCI-H460 lung = tested on: NCI-H460 lung
SNB-19 CNS = tested on: SNB-19 CNS
T-47D breast = tested on: T-47D breast
NCI-H226 lung = tested on: NCI-H226 lung
UACC-62 melanoma = tested on: UACC-62 melanoma
NCI/ADR-RES ovarian = tested on: NCI/ADR-RES ovarian
NCI-H522 lung = tested on: NCI-H522 lung
MALME-3M melanoma = tested on: MALME-3M melanoma
SK-MEL-5 melanoma = tested on: SK-MEL-5 melanoma
HOP-62 NSCLC = tested on: HOP-62 NSCLC
DU-145 prostate = tested on: DU-145 prostate
UO-31 renal = tested on: UO-31 renal
SK-MEL-2 melanoma = tested on: SK-MEL-2 melanoma
SNB-78 CNS = tested on: SNB-78 CNS
XF 498 CNS = tested on: XF 498 CNS

NC(=O)/C=C/c1c[nH]c2nccnc12
TGI (SF-268 CNS): > 21.9 µM
TGI (PC-3 prostate): 26.1 µM
TGI (CCRF-CEM leukemia): 7.4 µM
TGI (HL-60(TB) leukemia): > 38.7 µM
TGI (DLD-1 colon): 4.83 µM
TGI (MCF7 breast): > 100 µM
TGI (M19-MEL melanoma): 79 µM
TGI (LOX IMVI melanoma): 4.63 µM
TGI (LXFL 529 NSCLC): 0.611 µM
TGI (SF-539 CNS): 6.15 µM
TGI (IGROV1 ovarian): > 28.8 µM
TGI (UACC-257 melanoma): 52.8 µM
TGI (A549 NSCLC): > 100 µM
TGI (U251 CNS): > 100 µM
TGI (OVCAR-4 ovarian): 65.4 µM
TGI (RXF 393 renal): 4.17 µM
TGI (SN12C renal): 11.4 µM
TGI (OVCAR-3 ovarian): > 39.5 µM
TGI (NCI-H23 lung): 2.74 µM
TGI (KM12 colon): > 46.3 µM
TGI (MDA-N): > 75.2 µM
TGI (MOLT-4 leukemia): 1.38 µM
TGI (HCT-15 colon): 55.7 µM
TGI (HCC-2998 colon): 5.28 µM
TGI (EKVX NSCLC): 24.7 µM
TGI (CAKI-1 renal): > 100 µM
TGI (SNB-75 CNS): 4.46 µM
TGI (SF-295 CNS): 28.9 µM
TGI (ACHN renal): > 53.6 µM
TGI (BT-549 breast): 8.09 µM
TGI (K-562 leukemia): > 18 µM
TGI (SK-OV-3 ovarian): > 100 µM
TGI (MDA-MB-435): 13.2 µM
TGI (A498 renal): 12.5 µM
TGI (OVCAR-5 ovarian): 0.662 µM
TGI (M14 melanoma): 30.5 µM
TGI (SW-620 colon): 10.5 µM
TGI (COLO 205 colon): 3.27 µM
TGI (RPMI-8226 leukemia): > 100 µM
TGI (MDA-MB-231 breast): 31.6 µM
TGI (SR leukemia): > 100 µM
TGI (HT29 colon): > 25.2 µM
TGI (HOP-92 NSCLC): > 28.8 µM
TGI (SK-MEL-28 melanoma): 4.26 µM
TGI (HCT-116 colon): > 37.5 µM
TGI (786-0 renal): > 100 µM
TGI (DMS 273 small cell lung): 10.5 µM
TGI (DMS 114 small cell lung): 8.53 µM
TGI (OVCAR-8 ovarian): > 87.5 µM
TGI (TK-10 renal): 6.26 µM
TGI (HS 578T breast): 4.6 µM
TGI (KM20L2 colon): 1.35 µM
TGI (HOP-18 NSCLC): 0.793 µM
TGI (NCI-H460 lung): > 54 µM
TGI (SNB-19 CNS): > 16.7 µM
TGI (T-47D breast): 23.5 µM
TGI (NCI-H226 lung): 5.72 µM
TGI (UACC-62 melanoma): 8.85 µM
TGI (NCI/ADR-RES ovarian): > 29.1 µM
TGI (NCI-H522 lung): 45.9 µM
TGI (MALME-3M melanoma): 2.18 µM
TGI (SK-MEL-5 melanoma): 10.9 µM
TGI (HOP-62 NSCLC): 19.3 µM
TGI (DU-145 prostate): > 34 µM
TGI (UO-31 renal): 0.609 µM
TGI (SK-MEL-2 melanoma): 3.95 µM

C[C@@]12[Se]c3ccccc3[C@]1(C)[Se]c1ccccc12
TGI (SF-268 CNS): > 100 µM
TGI (CCRF-CEM leukemia): > 100 µM
TGI (HL-60(TB) leukemia): 8.4 µM
TGI (DLD-1 colon): > 100 µM
TGI (M19-MEL melanoma): > 100 µM
TGI (LOX IMVI melanoma): > 100 µM
TGI (LXFL 529 NSCLC): > 100 µM
TGI (U251 CNS): > 100 µM
TGI (OVCAR-4 ovarian): > 100 µM
TGI (SN12C renal): > 100 µM
TGI (OVCAR-3 ovarian): > 100 µM
TGI (NCI-H23 lung): > 100 µM
TGI (KM12 colon): > 100 µM
TGI (HCC-2998 colon): > 100 µM
TGI (EKVX NSCLC): > 100 µM
TGI (CAKI-1 renal): > 100 µM
TGI (SF-295 CNS): > 100 µM
TGI (ACHN renal): > 100 µM
TGI (K-562 leukemia): > 100 µM
TGI (OVCAR-5 ovarian): > 100 µM
TGI (M14 melanoma): > 100 µM
TGI (SW-620 colon): > 100 µM
TGI (COLO 205 colon): > 100 µM
TGI (RPMI-8226 leukemia): > 100 µM
TGI (HT29 colon): > 100 µM
TGI (HOP-92 NSCLC): > 100 µM
TGI (HCT-116 colon): > 100 µM
TGI (786-0 renal): > 100 µM
TGI (DMS 273 small cell lung): > 100 µM
TGI (OVCAR-8 ovarian): > 100 µM
TGI (TK-10 renal): > 100 µM
TGI (KM20L2 colon): > 100 µM
TGI (HOP-18 NSCLC): > 100 µM
TGI (NCI-H226 lung): > 100 µM
TGI (UACC-62 melanoma): 7.18 µM
TGI (NCI-H522 lung): > 100 µM
TGI (MALME-3M melanoma): > 100 µM
TGI (SK-MEL-5 melanoma): > 100 µM
TGI (SK-MEL-2 melanoma): > 100 µM

CC(C)(C)CC(C)(C)c1cc2c(O)c(c1)Cc1cc(C(C)(C)CC(C)(C)C)cc(c1O)Cc1cc(C(C)(C)CC(C)(C)C)cc(c1O)Cc1cc(C(C)(C)CC(C)(C)C)cc(c1O)Cc1cc(C(C)(C)CC(C)(C)C)cc(c1O)Cc1cc(C(C)(C)CC(C)(C)C)cc(c1O)Cc1cc(C(C)(C)CC(C)(C)C)cc(c1O)Cc1cc(C(C)(C)CC(C)(C)C)cc(c1O)C2
TGI (SF-268 CNS): > 100 µM
TGI (CCRF-CEM leukemia): > 100 µM
TGI (HL-60(TB) leukemia): > 100 µM
TGI (DLD-1 colon): > 100 µM
TGI (M19-MEL melanoma): > 100 µM
TGI (LXFL 529 NSCLC): > 100 µM
TGI (SF-539 CNS): > 100 µM
TGI (IGROV1 ovarian): > 100 µM
TGI (UACC-257 melanoma): > 100 µM
TGI (A549 NSCLC): > 100 µM
TGI (U251 CNS): > 100 µM
TGI (OVCAR-4 ovarian): > 100 µM
TGI (SNB-78 CNS): > 100 µM
TGI (RXF 393 renal): > 100 µM
TGI (SN12C renal): > 100 µM
TGI (OVCAR-3 ovarian): > 100 µM
TGI (NCI-H23 lung): > 100 µM
TGI (KM12 colon): > 100 µM
TGI (MOLT-4 leukemia): > 100 µM
TGI (HCT-15 colon): > 100 µM
TGI (HCC-2998 colon): > 100 µM
TGI (EKVX NSCLC): > 100 µM
TGI (SNB-75 CNS): > 100 µM
TGI (SF-295 CNS): > 100 µM
TGI (ACHN renal): > 100 µM
TGI (K-562 leukemia): > 100 µM
TGI (OVCAR-5 ovarian): > 100 µM
TGI (M14 melanoma): > 100 µM
TGI (SW-620 colon): > 100 µM
TGI (COLO 205 colon): > 100 µM
TGI (XF 498 CNS): > 100 µM
TGI (RPMI-8226 leukemia): > 100 µM
TGI (HT29 colon): > 100 µM
TGI (HOP-92 NSCLC): > 100 µM
TGI (SK-MEL-28 melanoma): > 100 µM
TGI (HCT-116 colon): > 100 µM
TGI (786-0 renal): > 100 µM
TGI (DMS 273 small cell lung): > 100 µM
TGI (OVCAR-8 ovarian): > 100 µM
TGI (TK-10 renal): > 100 µM
TGI (KM20L2 colon): > 100 µM
TGI (NCI-H460 lung): > 100 µM
TGI (SNB-19 CNS): > 100 µM
TGI (UACC-62 melanoma): > 100 µM
TGI (NCI-H522 lung): > 100 µM
TGI (MALME-3M melanoma): > 100 µM
TGI (SK-MEL-5 melanoma): > 100 µM
TGI (HOP-62 NSCLC): > 100 µM
TGI (UO-31 renal): > 100 µM
TGI (SK-MEL-2 melanoma): > 100 µM
